The supplement of paper PMC10307832

Legend:
Test in all cases: relative viability (nuclei count vs DMSO), 5 days (fraction); higher = more cells survive
[1] = compound: COC1=CC=C(C=C1)COC2=C(C=C(C=C2)CC3=CN=C(N=C3N)N)OC [GW-2580] + CC(=O)Nc1cccc(-n2c(=O)n(C3CC3)c(=O)c3c(Nc4ccc(I)cc4F)n(C)c(=O)c(C)c32)c1 [Trametinib] (partner 0.02 µM)
How it was run: (§1)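 Lung cancer cell lines were pin-tool dosed in 1536-well plates on the day after seeding, with either a lone drug or a fixed anchor-drug dose plus five library-drug doses (not always all listed) in √10 steps. Nuclei were counted on 4× images after 5 days. Relative viability is the ratio of treated-well to vehicle-well nuclei counts, with each value a median of duplicate plates.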

[2] = compound: COC1=CC=C(C=C1)COC2=C(C=C(C=C2)CC3=CN=C(N=C3N)N)OC [GW-2580] + CS(=O)(=O)N1CCN(Cc2cc3nc(-c4cccc5[nH]ncc45)nc(N4CCOCC4)c3s2)CC1 [Pictilisib] (partner 1 µM)
How it was run: as §1

[3] = compound: COC1=CC=C(C=C1)COC2=C(C=C(C=C2)CC3=CN=C(N=C3N)N)OC [GW-2580] + Nc1ncn([C@H]2C[C@H](O)[C@@H](CO)O2)c(=O)n1 [Decitabine] (partner 2 µM)
How it was run: as §1

[4] = compound: Cc1cnc(Nc2ccc(OCCN3CCCC3)cc2)nc1Nc1cccc(S(=O)(=O)NC(C)(C)C)c1 [Fedratinib] + CC1(C)CCC(c2ccc(Cl)cc2)=C(CN2CCN(c3ccc(C(=O)NS(=O)(=O)c4ccc(N[C@H](CCN5CCOCC5)CSc5ccccc5)c(S(=O)(=O)C(F)(F)F)c4)cc3)CC2)C1 [Navitoclax] (partner 0.5 µM)
How it was run: as §1

[5] = compound: Cc1cnc(Nc2ccc(OCCN3CCCC3)cc2)nc1Nc1cccc(S(=O)(=O)NC(C)(C)C)c1 [Fedratinib] + Cc1nc(Nc2ncc(C(=O)Nc3c(C)cccc3Cl)s2)cc(N2CCN(CCO)CC2)n1 [Dasatinib] (partner 0.075 µM)
How it was run: as §1

Cell Line | relative viability ([1]; first compound 0.08 µM) | relative viability ([1]; first compound 0.8 µM) | relative viability ([1]; first compound 2.53 µM) | relative viability ([1]; first compound 8 µM) | relative viability ([2]; first compound 0.08 µM) | relative viability ([2]; first compound 0.8 µM) | relative viability ([2]; first compound 2.53 µM) | relative viability ([2]; first compound 8 µM) | relative viability ([3]; first compound 0.08 µM) | relative viability ([3]; first compound 0.8 µM) | relative viability ([3]; first compound 2.53 µM) | relative viability ([3]; first compound 8 µM) | relative viability ([4]; first compound 0.1 µM) | relative viability ([4]; first compound 0.3162 µM) | relative viability ([4]; first compound 1 µM) | relative viability ([5]; first compound 0.1 µM) | relative viability ([5]; first compound 0.3162 µM) | relative viability ([5]; first compound 1 µM)
BEN | 1.05 | 1.1 | 0.898 | 0.979 | 0.612 | 0.602 | 0.451 | 0.515 | 0.703 | 0.79 | 0.619 | 0.677 | 0.0815 | 0.055 | 0.0392 | 0.36 | 0.312 | 0.294
EMC-BAC-2 | 0.805 | 0.988 |  | 0.856 | 0.577 | 0.618 | 0.452 | 0.519 | 0.977 | 0.961 |  | 0.943 | 1.19 | 1.15 | 1.11 | 0.289 | 0.362 | 0.285
LU99A | 0.668 | 0.646 | 0.499 | 0.462 | 0.274 | 0.322 | 0.251 | 0.294 | 0.924 | 1.05 | 0.812 | 0.952 | 0.824 | 0.834 | 0.666 | 0.494 | 0.508 | 0.42
ABC-1 |  |  |  |  | 0.761 | 0.564 | 0.571 | 0.679 | 0.72 | 1.01 | 1.22 | 0.934 |  |  |  | 0.499 | 0.629 | 0.569
NCI-H2170 | 0.994 | 1.01 | 0.924 | 0.857 | 0.316 | 0.353 | 0.304 | 0.287 | 0.521 | 0.464 | 0.47 | 0.467 | 0.626 | 0.653 | 0.429 | 0.566 | 0.416 | 0.339
NCI-H1299 |  |  |  |  | 0.776 | 0.736 | 0.773 | 0.748 |  |  |  |  | 1.04 | 1.06 | 1.01 |  |  | 
EBC-1 |  |  |  |  | 0.309 | 0.374 | 0.323 | 0.296 |  |  |  |  | 0.28 | 0.282 | 0.155 |  |  | 
NCI-H2347 | 0.294 | 0.277 | 0.266 | 0.268 | 0.662 | 0.992 | 0.592 | 0.717 | 0.676 | 0.662 | 0.582 | 0.587 | 0.675 | 0.823 | 0.733 | 0.311 | 0.275 | 0.435
NCI-H1993 | 0.507 | 0.576 | 0.522 | 0.519 | 0.827 | 0.804 |  | 0.655 | 0.652 | 0.665 | 0.514 | 0.63 | 0.75 | 0.869 | 0.903 | 0.591 | 0.545 | 0.62
NCI-H322M | 0.466 | 0.485 | 0.428 | 0.59 | 0.493 | 0.534 | 0.501 | 0.531 | 0.73 | 0.816 | 0.611 | 0.489 | 1.16 | 1.18 | 1.23 | 0.254 | 0.24 | 0.222
